Earlier results as cited in patent US20100093849A1, “OXALIPLATIN PHARMACEUTICAL COMPOSITION WITH ALCOHOLIC SUGAR-BASED BUFFER” (priority 2007, published 2010).
Values joined by “and” are separate entries in the source; they are usually repeats but may differ in a detail not shown here. Identical values can stand only once.

Columns and labels:
[1] = Merck Index

Structure (SMILES)	solubility in water (at 37° C.)	solubility in ether and ethanol (ether and ethanol)	highest concentrations of oxaliplatinum achieved (solvent of the same volumes of 1,2-propanediol and water (WO0115691))	second dissociation constant, pKa [1]
O=C1[O][Pt]2([NH][C@@H]3CCCC[C@H]3[NH]2)[O]C1=O [Oxaliplatinum, {trans-(1R,2R)-1,2-cyclohexane-diamine}-(oxalato)platinum(II) complex]	about 8 mg/ml	practically insoluble	14.01 mg/mL and 14.33 mg/mL	–
O=C(O)C(=O)O [Oxalic acid]	–	–	–	4.28
